Laboratory results taken from paper PMC12232897, “Harnessing Negative Photochromism in Styryl Cyanines for Light‐Modulated Proton Transport” (Angewandte Chemie (International Ed. in English), 2025).

Columns and labels:
Type in all cases: physicochemical
[1] = pKa in the dark and under light irradiation; conditions: for pKa: water:DMSO 99:1, dark, read-out: pKa dark (open form)
Source text: Since light‐induced cyclization is also associated with a change in the nature of the amino group of 1a–e, we investigated the change in their pK a upon light irradiation. This phenomenon has been already reported in the literature for other photoresponsive molecules,^[ [41], [42] ^] and it is recognized that, apart from being key in many biological processes, is a powerful tool for potential applications in catalysis^[ [43] ^] or self‐assembly.^[ [44] ^] […] Moreover, for compounds 1b and 1c, bearing methoxy groups, the change in pK a generated upon light irradiation is considerably smaller than for compounds 1d and 1e, bearing fluorine groups. This difference can be easily associated with the nature of the substituents, where for 1d–e the electron‐withdrawing effect of the fluorine favors a higher acidity of the closed isomers, contrarily to the effect of the electron‐donating groups for 1b–c.

Solubility in solvents = conditions: solvent
Source text: Having explored the effect of substituents, we next focused on the impact of the medium. […] These findings can be explained using the reported hydrogen‐bond donor (HBD) acidity (Taft–Kamlet α‐scale) of the utilized solvents.^[ [39] ^] Such a big difference in thermal half‐life has to be associated with the proton transfer from the secondary amine (in the closed form) to the phenol group since the back relaxation from the closed form to the open conjugated form is a […] process. We hypothesize that solvents like water and methanol trigger a Grotthus‐like proton transfer mechanism which speeds up the back‐relaxation process, similar to what was previously reported for other phenol‐bearing photoswitches.^[ [40] ^]
Similar to what is observed for the other compounds, the half‐life of closed 1f in water is extremely small (Table 1). This opens the opportunity of using 1f in out‐of‐equilibrium^[ [45] ^] and dissipative water‐based systems. Moreover, irradiation of 1f triggers the photo reactions that generate its respective closed indole‐like form, which compared to the closed forms of 1a–e also has a lower value of pK^hν (Table 1) and generates a higher ΔpK a value between the open and closed forms, being 1.7 pK a units, thanks to the electron‐withdrawing effect coming from the presence of a sulfonate group.

[2] = Fatigue resistance / photostability under 365 nm irradiation; conditions: UV–vis absorbance kinetic experiments

pKa [1]	ΔpKa between the open and closed forms ([1]; water:DMSO 99:1)	Photostability on prolonged irradiation at 365 nm [2]	Compound	Solubility (Solubility in solvents)
4.3			CC1(C)C(/C=C/c2ccccc2O)=Nc2ccccc21 [1a]	soluble in both polar and apolar solvents
4.3			CC1(C)C(/C=C/c2ccccc2O)=Nc2ccc(F)cc21 [1d]	
4.3			CC1(C)C(/C=C/c2cc(F)ccc2O)=Nc2ccccc21 [1e]	
3.9	1.7 pK a units		CC1(C)C(/C=C/c2ccccc2O)=Nc2ccc(S(=O)(=O)[O-])cc21.[K+] [1f]	fully soluble and fully switchable in water

Second part, the molecule before the results:

Compound	pKa [1]	ΔpKa between the open and closed forms ([1]; water:DMSO 99:1)	Photostability on prolonged irradiation at 365 nm [2]	Solubility (Solubility in solvents)
COc1ccc2c(c1)C(C)(C)C(/C=C/c1ccccc1O)=N2 [1b]	4.6			
COc1ccc(O)c(/C=C/C2=Nc3ccccc3C2(C)C)c1 [1c]	4.3			
COc1ccccc1/C=C/C1=Nc2ccccc2C1(C)C [1g]			photodegradation of the sample	
